From patent US5134138A, “Phenacylpyridiniothiocephalosporins” (Shionogi & Co., Ltd., priority 1989, dated 1992)
Values after ≈ are worked out from the molar mass of the structure shown. Like-named read-outs stand apart in the source and are kept apart here.

Columns and labels:
[1] = tested on: Pseudomonas aeruginosa SR 24; experiment: minimal inhibitory concentration (agar plate two-fold dilution), Pseudomonas aeruginosa SR 24; assay type: cell-based
Procedure: (§1) 3) The said sodium salt (1 g) prepared by neutralizing under sterile condition is dissolved in distilled water for injection (4 g) and administered to a patient suffering from sensitive pseudomonal bacteria twice a day intravenously to treat this infection. The free acid or sodium salt is dissolved in 0.01N-aqueous sodium hydrogen carbonate and tested for minimal inhibitory concentration against gram-negative bacteria according to a method of Japan Society of Chemotherapy on an agar plate by two-fold dilution method.
The minimal inhibitory concentration of Compound (I) where R^1 is 2-(2-amino-4-thiazolyl)-2-(1-carboxy-1-methylethoxyimino)acetamido, R^2 is hydrogen, R^3 is hydrogen, R^4 is 3,4-dihydroxyphenyl, R^5 is methylene, R^6 combined with Y- is negative charge, and X is sulfur against Pseudomonas aeruginosa SR 24 is 0.2 μg/ml. By altering the groups with the following ones to vary the activities as listed below.

[2] = tested on: Pseudomonas aeruginosa SR 5018; experiment: minimal inhibitory concentration (agar plate two-fold dilution), ofloxacin resistant Pseudomonas aeruginosa SR 5018; assay type: cell-based; conditions: SR5018
Procedure: as §1

[3] = tested on: Escherichia coli SR 5082; experiment: minimal inhibitory concentration (agar plate two-fold dilution), Escherichia coli SR 5082; assay type: cell-based; conditions: SR5082
Procedure: as §1

[4] = tested on: Pseudomonas aeruginosa SR 24; experiment: 50% effective dose preventing lethal Pseudomonas aeruginosa SR 24 mouse infection; assay type: in vivo
Source text: (§2) The compound is highly safe in the case of intravenous injection to various animals.

[5] = tested on: mice; experiment: safety, intravenous injection in mice; assay type: in vivo; conditions: up to 1 g/kg
Source text: as §2

[6] = tested on: rabbits; assay type: in vivo; conditions: up to 1 g/kg
Source text: as §2

[7] = tested on: various animals; experiment: safety, intravenous injection to various animals; assay type: in vivo
Source text: as §2

[8] = SR24, Pseudomonas aeruginosa SR 24, Experiment 1, read-out: minimal inhibitory concentration
[9] = ofloxacin resistant Pseudomonas aeruginosa SR 5018, read-out: MIC

CC(C(=O)c1ccc(O)c(O)c1)[n+]1ccc(SCC2=C(C(=O)[O-])N3C(=O)[C@@H](NC(=O)C(=NOC(C)(C)C(=O)O)c4csc(N)n4)[C@H]3SC2)cc1 (some centres unmarked) [No. 23]
MIC [1, 8]: 0.025 µg/mL (≈ 0.0337 µM)

CC(C)(ON=C(C(=O)N[C@@H]1C(=O)N2C(C(=O)[O-])=C(CSc3cc[n+](CC(=O)c4ccc(O)c(O)c4)cc3)CO[C@H]12)c1csc(N)n1)C(=O)O [No. 13]
MIC [1, 8]: 0.2 µg/mL (≈ 0.281 µM)

CC(C)(ON=C(C(=O)N[C@@H]1C(=O)N2C(C(=O)[O-])=C(C[n+]3ccc4cc(O)c(O)cc4c3)CS[C@H]12)c1csc(N)n1)C(=O)O [BO-1341, 3-(6,7-dihydroxyisoquinolinio)methyl-7β-(2-(2-aminothiazol-4-yl)-2-(1-carboxy-1-methylethoxyimino)acetamido)-3-cephem-4-carboxylate, reference compound]
MIC [2, 9]: 0.4 µg/mL (≈ 0.636 µM)
MIC [3]: 1.6 µg/mL (≈ 2.55 µM)

O=C(Cc1ccccc1)N[C@@H]1C(=O)N2C(C(=O)[O-])=C(CSc3cc[n+](CC(=O)c4ccc(O)c(O)c4)cc3)CS[C@H]12 [No. 1]
MIC [1, 8]: > 100 µg/mL

CC(C)(ON=C(C(=O)N[C@@H]1C(=O)N2C(C(=O)[O-])=C(CSc3cc[n+](CC(=O)c4cc(O)c(O)cc4Cl)cc3)CS[C@H]12)c1csc(N)n1)C(=O)O [No. 22 (3,4-OH-6-Cl)]
MIC [1, 8]: 0.025 µg/mL (≈ 0.0328 µM)

CC(C)(ON=C(C(=O)N[C@@H]1C(=O)N2C(C(=O)[O-])=C(CSc3cc[n+](CC(=O)c4ccc(O)c(O)c4)cc3)CS[C@H]12)c1csc(N)n1)C(=O)O [No. 8]
MIC [1, 8]: 0.2 µg/mL (≈ 0.274 µM)
ED50 ([4]; Pseudomonas aeruginosa, SR24, read-out: ED50 (50% effective dose preventing lethal infection), Pseudomonas aeruginosa SR 24, mouse infection): 1.35 to 6.27 mg/kg

CC(C)(ON=C(C(=O)N[C@@H]1C(=O)N2C(C(=O)[O-])=C(CSc3cc[n+](CC(=O)c4ccc(O)c(O)c4)cc3)C[S+]([O-])[C@H]12)c1csc(N)n1)C(=O)O (some centres unmarked) [No. 9]
times activity versus E-1040 (MIC) ([2]; Pseudomonas aeruginosa): 63 times
times activity versus ceftazidime (MIC) ([2]; Pseudomonas aeruginosa): 250 times
MIC [2, 9]: 0.1 µg/mL (≈ 0.134 µM)
MIC ([1]; Pseudomonas aeruginosa SR 24, listed as representative compound (I)): 0.1 µg/mL (≈ 0.134 µM)
MIC [1, 8]: 0.1 µg/mL (≈ 0.134 µM)
MIC ([1]; SR24, Pseudomonas aeruginosa SR 24, read-out: MIC): 0.1 µg/mL (≈ 0.134 µM)
MIC [3]: 0.2 µg/mL (≈ 0.269 µM)
ED50 (50% effective dose preventing lethal infection) ([4]; Pseudomonas aeruginosa SR 24, mouse infection, listed as Compound (I) where X is sulfinyl): 1.35 mg/kg
death [5]: no death
toxic effect as Antabuse-like activity [5]: no death nor toxic effect as Antabuse-like activity
renal toxicity [6]: did not show renal toxicity
safety [7]: highly safe

CC(C)(ON=C(C(=O)N[C@@H]1C(=O)N2C(C(=O)[O-])=C(CSc3cc[n+](CC(=O)c4ccc(O)c(O)c4)c4c3CCC4)CS[C@H]12)c1csc(N)n1)C(=O)O [No. 25]
MIC [1, 8]: 0.05 µg/mL (≈ 0.065 µM)

CON=C(C(=O)N[C@@H]1C(=O)N2C(C(=O)[O-])=C(CSc3cc[n+](CC(=O)c4ccc(O)c(O)c4)cc3)CS[C@H]12)c1csc(N)n1 [No. 5]
MIC [1, 8]: 0.4 µg/mL (≈ 0.609 µM)

Cc1cc(O)c(O)cc1C(=O)C[n+]1ccc(SCC2=C(C(=O)[O-])N3C(=O)[C@@H](NC(=O)C(=NOC(C)(C)C(=O)O)c4csc(N)n4)[C@H]3SC2)cc1 [No. 14]
MIC [1, 8]: 0.05 µg/mL (≈ 0.0673 µM)

CC(=O)Oc1ccc(C(=O)C[n+]2ccc(SCC3=C(C(=O)[O-])N4C(=O)[C@@H](NC(=O)C(=NOC(C)(C)C(=O)O)c5csc(N)n5)[C@H]4SC3)cc2)cc1OC(C)=O [No. 11]
MIC [1, 8]: 0.025 µg/mL (≈ 0.0308 µM)

CC(C)(ON=C(C(=O)N[C@@H]1C(=O)N2C(C(=O)[O-])=C(CSc3cc[n+](CC(=O)c4cccc(O)c4O)cc3)CS[C@H]12)c1csc(N)n1)C(=O)O [No. 7]
MIC [1, 8]: 0.39 µg/mL (≈ 0.535 µM)

CC(C)(ON=C(C(=O)N[C@@H]1C(=O)N2C(C(=O)[O-])=C(CSc3cc[n+](CC(=O)c4cc(O)c(O)c(Cl)c4)cc3)CS[C@H]12)c1csc(N)n1)C(=O)O [No. 18]
MIC [1, 8]: 0.025 µg/mL (≈ 0.0328 µM)

CC(C)(O/N=C(\C(=O)N[C@@H]1C(=O)N2C(C(=O)[O-])=C(C[n+]3ccccc3)CS[C@H]12)c1csc(N)n1)C(=O)O [ceftazidime, reference compound]
MIC ([2]; Pseudomonas aeruginosa): 25 µg/mL (≈ 45.7 µM)

CON=C(C(=O)N[C@@H]1C(=O)N2C(C(=O)[O-])=C(C[N+]34CCC(C(N)=O)(CC3)CC4)CS[C@H]12)c1nsc(N)n1 [E-1040, 3-(4-carbamoylquinuclidinio)methyl-7β-[2-(5-amino-1,2,4-thiadiazol-3-yl)-2-methoxyimino]-acetamido-3-cephem-4-carboxylate, reference compound]
MIC ([2]; Pseudomonas aeruginosa): 6.3 µg/mL (≈ 11.4 µM)

CC(C)(C=C(C(=O)N[C@@H]1C(=O)N2C(C(=O)[O-])=C(CSc3cc[n+](CC(=O)c4ccc(O)c(O)c4)cc3)CS[C@H]12)c1csc(N)n1)C(=O)O [No. 27]
MIC [1, 8]: 0.1 µg/mL (≈ 0.14 µM)
